Like-named read-outs stand apart in the source and are kept apart here. Positions of bridges follow the written chain, without caps; N, C: chain ends. Non-standard residues stand in square brackets, D forms with d. Residues, ends and D or L forms follow the SMILES beside them. *: point of attachment. Octanoyl = CCCCCCCC(=O)*; Dab = NCC[C@H](N)C(=O)O
What was measured:
E. coli IH3080 = test: Agar well growth inhibition on LB plates with or without rifampin; assay type: cell-based, Escherichia coli; settings: well containing 4 micrograms of the compound; for Activity w. rifampin: growth inhibition around a well: LB plate containing rifampin 0.1 micrograms/ml; for Direct activity: growth inhibition around a well: LB plates
[1] = Basic pharmacokinetics after i.v. bolus in rats; assay type: in vivo, rat (Sprague-Dawley); settings: rat
Method: Blood samples were centrifuged to obtain plasma. […] Plasma and urine samples were stored at −80° C. […] NAB 741 was eluted at 6.65±0.05 min and NAB739 was eluted at 9.45±0.05 min.

[2] = rat, in vivo; cited from earlier work
bacteria = settings: Sakura et al. (2004); cited from earlier work
[3] = tested on: E. coli (ATCC25922 and IH3080), K. pneumoniae ATCC13883, and E. cloacae ATCC23355; assay type: cell-based; settings: all four strains; NAB741 alone
Method: MICs were determined by using E-strips (Biodisk Ltd., Solna, Sweden) according to the manufacturer's instructions.

Ac. baumannii F264 = test: E-test MIC of antibacterial agents on Mueller-Hinton agar with or without NAB741; assay type: cell-based; settings: Acinetobacter baumannii; A. baumannii F264 (meropenem-resistant); meropenem alone; read-out: MIC of meropenem at NAB 741 concn 0 μg/ml
From the text: (§1) Five of the strains originated from ATCC. Acinetobacter baumannii F264 was purchased from Mobidiag Ltd., Helsinki, Finland. The source of E. coli IH3080 has been given in Example 2.
(§2) Sensitization factor was defined as in Example 4. NAB7061 sensitized the meropenem-resistant strain F264 to meropemen by a factor >4.

Ac. baumannii ATCC19606 = test: as above; assay type: cell-based; settings: Acinetobacter baumannii; A. baumannii ATCC19606; meropenem alone; read-out: MIC of meropenem at NAB 741 concn 0 μg/ml
From the text: as §1, §2

Compound | Activity w. rifampin: growth inhibition around a well (E. coli IH3080) [square millimeters] | Direct activity: growth inhibition around a well (E. coli IH3080) [square millimeters] | also measured
acetyl-Thr-DAsn-cy[Dab-Dab-DPhe-Leu-Dab-Dab-Thr-] [NAB 745] | 50 | 0 | –
CCCCCCCC(=O)N[C@H](C(=O)N[C@H](CO)C(=O)N[C@H]1CCNC(=O)[C@H]([C@@H](C)O)NC(=O)[C@H](CCN)NC(=O)[C@H](CCN)NC(=O)[C@H](CC(C)C)NC(=O)[C@@H](Cc2ccccc2)NC(=O)[C@H](CCN)NC1=O)[C@@H](C)O [NAB 739] (Octanoyl-T[dS][Dab][Dab][dF]L[Dab][Dab]T; lactam 3-C) | – | – | clearance ([1]; acetate 1 mg/kg i.v. bolus): 0.158 ± 0.0324 L/h/kg; renal clearance ([1]; acetate 1 mg/kg i.v. bolus): 0.0318 ± 0.018 L/h/kg; volume of distribution ([1]; acetate 1 mg/kg i.v. bolus): 0.222 ± 0.0205 L/kg; half-life ([1]; acetate 1 mg/kg i.v. bolus, plasma): 1.15 ± 0.365 h
Polymyxin B | 95 | 79 | –
Colistin (polymyxin E) | – | – | clearance [2]: 0.312 ± 0.024 L/h/kg; half-life [2]: 1.24 ± 0.22 h; renal clearance [2]: 0.0006 ± 0.00048 L/h/kg; volume of distribution [2]: 0.496 ± 0.06 L/kg
Polymyxin B heptapeptide | 0 | 0 | –
octanoyl polymyxin B heptapeptide [Octanoyl PMBH] | 0 | 0 | Concentration that inhibits the growth of bacteria (bacteria): 128 µg/mL
Deacylcolistin | 87 | 79 | –
CC(=O)N[C@H](C(=O)N[C@H](CO)C(=O)N[C@H]1CCNC(=O)[C@H]([C@@H](C)O)NC(=O)[C@H](CCN)NC(=O)[C@H](CCN)NC(=O)[C@H](CC(C)C)NC(=O)[C@@H](Cc2ccccc2)NC(=O)[C@H](CCN)NC1=O)[C@@H](C)O [NAB 741, acetyl-Thr-DSer-cy[Dab-Dab-DPhe-Leu-Dab-Dab-Thr-]] (Ac-T[dS][Dab][Dab][dF]L[Dab][Dab]T; lactam 3-C (inferred)) | – | – | MIC of NAB741 [3]: > 16 mg/L; urinary recovery ([1]; in vivo, iv, 1 mg/kg): 50.9±13.6 % of dose in 24 h; volume of distribution ([1]; in vivo, iv, 1 mg/kg): 0.243 ± 0.024 L/kg
Polymyxin B nonapeptide [Polymyxin B nonpeptide] | 20 | 0 | –
C[C@@H](O)[C@H]1C(=O)N2C(C(=O)O)=C(S[C@@H]3CN[C@H](C(=O)N(C)C)C3)[C@H](C)[C@H]12 [meropenem] | – | – | MIC (Ac. baumannii F264): > 32 mg/L; MIC (Ac. baumannii ATCC19606): 0.75 mg/L
Deacylpolymyxin B | 79 | 57 | –

Source: patent publication US9090669B2, “Short fatty acid tail polymyxin derivatives and uses thereof” (priority 2008, dated 2015)
